“And” between values parts separate entries of the source, which are not always exact repeats. Identical values can stand only once. “Also recorded” adds a separate entry of the source. Like-named read-outs stand apart in the source and are kept apart here. Non-standard residues stand in square brackets, D forms with d. Residues, ends and D or L forms follow the SMILES beside them. *: point of attachment. NH(1-CH2NMe2-cBu) = CN(C)CC1(N*)CCC1; Oxazole4CO(2-Me) = Cc1nc(C(=O)*)co1; Benzoyl(4-F) = O=C(c1ccc(F)cc1)*; hCha = N[C@@H](CCC1CCCCC1)C(=O)O; Aib = CC(C)(N)C(=O)O; βAla = NCCC(=O)O
How the values were obtained:
[1] = system: Plasmodium falciparum K1 strain; assay: microbe, parasite or virus in culture
Description: (§1) Testing of compounds against Plasmodium falciparum (K1 strain), Trypanosoma brucei rhodesiense (STIB 900 strain), Trypanosoma cruzi trypomastigote forms (Tulahuen strain), and Leishmania donovani (strain MHOM/ET/67/L82) was performed in 96 well plates at concentrations in serial dilutions. Tests were done in triplicate. IC50 values against the parasites as well as cytotoxic effects against rat myoblast (L6-cells) were determined by serial dilution and repeated twice.
Determination of activity against Plasmodium falciparum K1 strain was done using a modified version of the ^3H-hypoxanthine incorporation assay by Trager and Jensen (Trager W. and Jensen, J.B. Science 1976; 193:673-675). After incubation the plates were harvested using a Betaplate cell harvester (Wallac, Switzerland) onto glass-fiber filters and washed. The dried filters were inserted into plastic foils with 10 ml scintillation fluid. The radioactivity was counted with a Betaplate liquid scintillation counter (Wallac, Switzerland) as counts per minute per well at each drug concentration and compared to the untreated controls. […] IC50 values were calculated by linear interpolation. All assays were run in duplicate and repeated two times.

[2] = system: intracellular Leishmania donovani (L.don. InMac); assay: Intracellular Leishmania donovani assay (L.don. InMac); assay type: cell-based; settings: In vitro inhibition
Excerpt: (§2) Tests were done in triplicate.

[3] = system: Trypanosoma brucei rhodesiense (STIB 900 strain); assay: Alamar Blue assay against Trypanosoma brucei rhodesiense grown in axenic medium; assay type: cell-based; settings: In vitro inhibition, read-out: T.b.rhod.
Summary of the method: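 Alamar Blue-based IC50 determination, in triplicate, on axenically grown STIB 900 trypanosomes. Melarsoprol included as reference.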

Plasmodium falciparum = assay: 3H-hypoxanthine incorporation assay against Plasmodium falciparum; assay type: cell-based; settings: In vitro inhibition, read-out: P.falc NF5
Description: as §2
IC50 values were calculated by linear interpolation.

[4] = Cytotoxicity assay on L6-cells (Alamar Blue); settings: rat, Cytotox L6, Cytotoxicity against rat myoblast cells (L6)
[5] = system: Trypanosoma cruzi trypomastigote forms (Tulahuen strain); assay: Intracellular Trypanosoma cruzi assay in L6-cells, beta-galactosidase/CPRG readout; assay type: cell-based; settings: In vitro inhibition, read-out: T.cruzi.
Summary of the method: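 Readout was β-galactosidase cleavage of CPRG, read photometrically at 540 nm after 2–6 h colour development, giving IC50 values. Parasites: LacZ-expressing Tulahuen C2C4 strain grown in rat L6 myoblasts; run in triplicate.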

[6] = system: Trypanosoma brucei brucei; assay: Acute mouse sleeping sickness model (in vivo antitrypanosomal activity); settings: for Mean day of relapse / Mean day of survival / animals surviving until day 31: group of four mice; for Day of relapse / Parasitaemia day 7 / Parasitaemia day 10 / Parasitaemia day 14 / Parasitaemia day 17 / Parasitaemia day 21 / Parasitaemia day 24 / Parasitaemia day 28 / Parasitaemia day 31 / Survival days: individual mice; for parasitaemia on day 7: day 7 post infection; for reduction of parasitaemia compared to untreated controls: four mice; on Parasitaemia day 7: key: 0 = no parasite in 20 fields of view; ((+)) = 1 Trypanosome in 20 fields of view; (+) = 1 Trypanosome per field of view; + = 2 - 5 Trypanosomes per field of view; ++ = 6 - 20 Trypanosomes per field of view, the mouse is killed; +++ = > 20 Trypanosomes per field of view, the mouse is killed
Description: This model mimics the first stage of the human African trypanosomiasis. Adult female NMRI mice were purchased from Janvier (St. Berthevin, France). They weighed between 20 and 25 g at the beginning of the study and were kept under standard conditions at 22 °C and 60-70% humidity in macro Ion type III cages with food pellets and water ad libitum. The samples were first dissolved in 100% DMSO, followed by addition of distilled H2O to a final DMSO concentration of 10%. For determination of the in vivo antitrypanosomal activity, mice were infected intraperitoneally with 1 x 10^4 STIB900 bloodstream forms. […] A control group of four mice was infected, but remained untreated. The determination of the parasitaemia was done on days 7, 10, 14, 17, 21, 24, 28, and 31 post infection. To do this 6 µL of tail blood were diluted in 24 µL sodium citrate (3.2%), whereby the first µL was discarded to obtain circulating blood. Five µL of this mixture were transferred to a glass slide and covered with an 18 x 18 mm cover slide. The sample was examined under a light microscope (200-fold magnification) and parasites were counted in 3 of the 16 squares of the grid.

[7] = system: Axenically grown Leishmania donovani amastigotes (strain MHOM/ET/67/L82); assay: Axenic Leishmania donovani amastigote resazurin assay; assay type: cell-based; settings: In vitro inhibition, read-out: L.don. ax
Summary of the method: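 IC50 values derive from resazurin fluorescence (ex 536 nm, em 588 nm), expressed relative to the negative control, after 2-4 hours of plate development. Axenic amastigotes of strain MHOM/ET/67/L82 were used; each test run in triplicate.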

rat myoblast (L6-cells) = assay: Cytotoxicity assay on L6-cells (Alamar Blue); settings: Rattus norvegicus, Myoblast, 70 h
Description: as §1

[8] = Cytotoxicity assay on L6-cells (Alamar Blue); settings: rat, L6 rat myoblast cells
Description: as §1

[9] = 3 mg/kg per injection, 2 per day, 4 treatment days, i.p.
[10] = 3 mg/kg twice a day for 4 days, intraperitoneally
[11] = 30 mg/kg per injection, 1 per day, 4 treatment days, p.o.
[12] = 3 mg/kg per injection, 2 per day, 2 treatment days, i.p.
[13] = 3 mg/kg twice a day for 2 days, intraperitoneal

## CCN(CC)CCCC(C)Nc1ccnc2cc(Cl)ccc12 (stereo not drawn) [Chloroquine]
[1]; K1
  IC50: 50 ± 10 nM
[1]; K1, read-out: P.falc NF5
  IC50: 6.25 nM

## Cc1nc(C(=O)N2CCC[C@H]2C(=O)N[C@@H](CCC2CCCCC2)C(=O)N[C@@H](CC(C)C)C(=O)NC(C)(C)C(=O)N[C@@H](CC(C)C)C(=O)N[C@@H](CC(C)C)C(=O)NC(C)(C)C(=O)NC(C)(C)C(=O)NCCC(=O)NC2(CN(C)C)CCC2)co1 [Compound 6025, (2S)-2-[(2S)-4-cyclohexyl-2-{[(2S)-1-(2-methyl-1,3-oxazole-4-carbonyl)pyrrolidin-2-yl]formamido}butanamido]-N-(1-{[(1S)-1-{[(1S)-1-({1-[(1-{[2-({1-[(dimethylamino)methyl]cyclobutyl}carbamoyl)ethyl]carbamoyl}-1-methylethyl)carbamoyl]-1-methylethyl}carbamoyl)-3-methylbutyl]carbamoyl}-3-methylbutyl]carbamoyl}-1-methylethyl)-4-methylpentanamide] ({Oxazole4CO(2-Me)}-P[hCha]L[Aib]LL[Aib][Aib][βAla]-{NH(1-CH2NMe2-cBu)})
[2]
  IC50: 41.1 nM
[3]
  IC50: 0.5 nM
Plasmodium falciparum
  IC50: 20900 nM
[4]
  IC50 at 70 h: 1910 nM
[5]
  IC50: 215 nM
[6]; [9]
  Mean day of relapse: 15 days
  Mean day of survival: 28 days
  Day of relapse: 10 day and 17 day (2×)
  Parasitaemia day 7: 0
  Parasitaemia day 10: 0 (3×) and ((+)) (((+)) = 1 Trypanosome in 20 fields of view)
  Parasitaemia day 14: 0
  Parasitaemia day 17: 0 and ((+)) (((+)) = 1 Trypanosome in 20 fields of view) and ++ (++ = 6 - 20 Trypanosomes per field of view, the mouse is killed) and (+) ((+) = 1 Trypanosome per field of view)
  Parasitaemia day 21: 0 (2×) and (+) ((+) = 1 Trypanosome per field of view)
  Parasitaemia day 24: 0 (2×) and ((+)) (((+)) = 1 Trypanosome in 20 fields of view)
  Parasitaemia day 28: 0
  Parasitaemia day 31: 0 (2×) and (+) ((+) = 1 Trypanosome per field of view)
  Survival days: 31 days (3×) and 17 days
[6]; [10]
  animals surviving treatment: all animals survived treatment
  parasitaemia on day 7: no observable parasitaemia
  reduction of parasitaemia compared to untreated controls: significant reduction of parasitaemia
  animals surviving until day 31: three out of four
[6]; 3 mg/kg twice a day for 4 days, intraperitoneally, of the three survivors
  animals with no observable parasitaemia at day 31: 2
[6]; [11]
  Mean day of relapse: 15 days
  Mean day of survival: 21 days
  Day of relapse: 17 day (2×) and 14 day and 10 day
  Parasitaemia day 7: 0
  Parasitaemia day 10: 0 (3×) and ((+)) (((+)) = 1 Trypanosome in 20 fields of view)
  Parasitaemia day 14: 0 (2×) and (+) ((+) = 1 Trypanosome per field of view) (2×)
  Parasitaemia day 17: + (+ = 2 - 5 Trypanosomes per field of view); also recorded: ++ (++ = 6 - 20 Trypanosomes per field of view, the mouse is killed)
  Parasitaemia day 21: ((+)) (((+)) = 1 Trypanosome in 20 fields of view)
  Parasitaemia day 24: (+) ((+) = 1 Trypanosome per field of view)
  Parasitaemia day 28: + (+ = 2 - 5 Trypanosomes per field of view)
  Parasitaemia day 31: +++ (+++ = > 20 Trypanosomes per field of view, the mouse is killed)
  Survival days: 20 days and 17 days (2×) and 31 days
[6]; mouse, in vivo, po, 30 mg/kg
  animals surviving treatment: all animals survived treatment
[6]; orally at 30 mg/kg once a day
  relapse by day 17: all had relapsed
  parasitaemia on day 7: no observable parasitaemia
  reduction of parasitaemia compared to untreated controls: significant reduction of parasitaemia
  animals surviving until day 31: one
[7]
  IC50: 31300 nM

## CC(C)C[C@H](NC(=O)[C@H](CCC1CCCCC1)NC(=O)[C@@H]1CCCN1C(=O)c1ccc(F)cc1)C(=O)NC(C)(C)C(=O)N[C@@H](CC(C)C)C(=O)N[C@@H](CC(C)C)C(=O)NC(C)(C)C(=O)NC(C)(C)C(=O)NCCC(=O)NC1(CN(C)C)CCC1 [Compound 6027, (2S)-2-[(2S)-4-cyclohexyl-2-{[(2S)-1-(4-fluorobenzoyl)pyrrolidin-2-yl]formamido}butanamido]-N-(1-{[(1S)-1-{[(1S)-1-({1-[(1-{[2-({1-[(dimethylamino)methyl]cyclobutyl}carbamoyl)ethyl]carbamoyl}-1-methylethyl)carbamoyl]-1-methylethyl}carbamoyl)-3-methylbutyl]carbamoyl}-3-methylbutyl]carbamoyl}-1-methylethyl)-4-methylpentanamide] ({Benzoyl(4-F)}-P[hCha]L[Aib]LL[Aib][Aib][βAla]-{NH(1-CH2NMe2-cBu)})
[2]
  IC50: 54.2 nM
[3]
  IC50: 0.4 nM
Plasmodium falciparum
  IC50: 42500 nM
[4]
  IC50 at 70 h: 1390 nM
[5]
  IC50: 155 nM
[6]; [12]
  Mean day of relapse: 17 days
  Mean day of survival: 18 days
  Day of relapse: 17 days
  Parasitaemia day 7: 0
  Parasitaemia day 10: 0
  Parasitaemia day 14: 0
  Parasitaemia day 17: ++ (++ = 6 - 20 Trypanosomes per field of view, the mouse is killed); also recorded: + (+ = 2 - 5 Trypanosomes per field of view)
  Parasitaemia day 21: ((+)) (((+)) = 1 Trypanosome in 20 fields of view)
  Parasitaemia day 24: ((+)) (((+)) = 1 Trypanosome in 20 fields of view)
  Parasitaemia day 28: (+) ((+) = 1 Trypanosome per field of view)
  Parasitaemia day 31: (+) ((+) = 1 Trypanosome per field of view)
  Survival days: 17 days (2×) and 31 days and 5 days
[6]; [13]
  parasitaemia by day 17: all surviving animals showed parasitaemia
  parasitaemia of the surviving animal at day 31: low parasitaemia
  parasitaemia on day 7: no observable parasitaemia
  reduction of parasitaemia compared to untreated controls: significant reduction of parasitaemia
  animals surviving until day 31: one
[6]; 3 mg/kg twice a day for 2 days, intraperitoneal, after day 17
  animals sacrificed after parasitaemia relapse: two
[6]; 3 mg/kg twice a day for 2 days, intraperitoneal, one death on day 5 for unspecified reasons
  animals surviving treatment: all animals survived treatment, except for one
[7]
  IC50: 34100 nM

## COc1cc([C@@H]2c3cc4c(cc3[C@H](O)[C@H]3COC(=O)[C@H]23)OCO4)cc(OC)c1OC [Podophyllotoxin]
Rat myoblast (L6-cells)
  IC50: 50 ± 10 nM
[8]
  IC50 at 70 h: 19.3 nM

From patent EP3345917A1, “ANTIPROTOZOAL COMPOUNDS” (Bacoba AG, priority 2017, dated 2018)
